Legend:
USP7 = biological target: T1, USP7 (Homo sapiens, UniProt Q93009); test: Viral trapping in VLPs, MS analysis; assay type: binding; details: all proteins (incl. low confidence identifications)
T1 construct: endogenous in cells; host or cells: HEK293T

NT5C = biological target: T2, NT5C (Homo sapiens, UniProt Q8TCD5); test: Viral trapping in VLPs, MS analysis; assay type: binding; details: all proteins (incl. low confidence identifications)
T2 construct: endogenous in cells; host or cells: HEK293T

MFI2 = biological target: T3, MFI2 (Homo sapiens, UniProt P08582); test: Viral trapping in VLPs, MS analysis; assay type: binding; details: all proteins (incl. low confidence identifications)
T3 construct: endogenous in cells; host or cells: HEK293T

RCL = biological target: T4, RCL (Homo sapiens, UniProt O43598); test: Viral trapping in VLPs, MS analysis; assay type: binding
T4 construct: endogenous in cells; host or cells: HEK293T

MBTPS1 = biological target: T5, MBTPS1 (Homo sapiens, UniProt Q14703); test: Viral trapping in VLPs, MS analysis; assay type: binding; details: all proteins (incl. low confidence identifications)
T5 construct: endogenous in cells; host or cells: HEK293T

RPS6KA1 = biological target: T6, RPS6KA1 (Homo sapiens, UniProt Q15418); test: Viral trapping in VLPs, MS analysis; assay type: binding; details: all proteins (incl. low confidence identifications)
T6 construct: endogenous in cells; host or cells: HEK293T

TMEM30A = biological target: T7, TMEM30A (Homo sapiens, UniProt Q9NV96); test: Viral trapping in VLPs, MS analysis; assay type: binding; details: all proteins (incl. low confidence identifications)
T7 construct: endogenous in cells; host or cells: HEK293T

MYO1D = biological target: T8, MYO1D (Homo sapiens, UniProt O94832); test: Viral trapping in VLPs, MS analysis; assay type: binding; details: all proteins (incl. low confidence identifications)
T8 construct: endogenous in cells; host or cells: HEK293T

DYNC2H1 = biological target: T9, DYNC2H1 (Homo sapiens, UniProt Q8NCM8); test: Viral trapping in VLPs, MS analysis; assay type: binding; details: all proteins (incl. low confidence identifications)
T9 construct: endogenous in cells; host or cells: HEK293T

TMEM9 = biological target: T10, TMEM9 (Homo sapiens, UniProt Q9P0T7); test: Viral trapping in VLPs, MS analysis; assay type: binding; details: all proteins (incl. low confidence identifications)
T10 construct: endogenous in cells; host or cells: HEK293T

GAK = biological target: T11, GAK (Homo sapiens, UniProt O14976); test: Viral trapping in VLPs, MS analysis; assay type: binding; details: all proteins (incl. low confidence identifications)
T11 construct: endogenous in cells; host or cells: HEK293T

NQO2 = biological target: T12, NQO2 (Homo sapiens, UniProt P16083); test: Viral trapping in VLPs, MS analysis; assay type: binding
T12 construct: endogenous in cells; host or cells: HEK293T

ZNF827 = biological target: T13, ZNF827 (Homo sapiens, UniProt Q17R98); test: Viral trapping in VLPs, MS analysis; assay type: binding; details: all proteins (incl. low confidence identifications)
T13 construct: endogenous in cells; host or cells: HEK293T

TMX1 = biological target: T14, TMX1 (Homo sapiens, UniProt Q9H3N1); test: Viral trapping in VLPs, MS analysis; assay type: binding; details: all proteins (incl. low confidence identifications)
T14 construct: endogenous in cells; host or cells: HEK293T

MST1R = biological target: T15, MST1R (Homo sapiens, UniProt Q04912); test: Viral trapping in VLPs, MS analysis; assay type: binding; details: all proteins (incl. low confidence identifications)
T15 construct: endogenous in cells; host or cells: HEK293T

HTRA3 = details: all proteins (incl. low confidence identifications)
INSR = biological target: T16, INSR (Homo sapiens, UniProt P06213); test: Viral trapping in VLPs, MS analysis; assay type: binding
T16 construct: endogenous in cells; host or cells: HEK293T

CAMKV = biological target: T17, CAMKV (Homo sapiens, UniProt Q8NCB2); test: Viral trapping in VLPs, MS analysis; assay type: binding; details: all proteins (incl. low confidence identifications)
T17 construct: endogenous in cells; host or cells: HEK293T

APMAP = biological target: T18, APMAP (Homo sapiens, UniProt Q9HDC9); test: Viral trapping in VLPs, MS analysis; assay type: binding; details: all proteins (incl. low confidence identifications)
T18 construct: endogenous in cells; host or cells: HEK293T

YIPF5 = biological target: T19, YIPF5 (Homo sapiens, UniProt Q969M3); test: Viral trapping in VLPs, MS analysis; assay type: binding; details: all proteins (incl. low confidence identifications)
T19 construct: endogenous in cells; host or cells: HEK293T

IGF1R = biological target: T20, IGF1R (Homo sapiens, UniProt P08069); test: Viral trapping in VLPs, MS analysis; assay type: binding
T20 construct: endogenous in cells; host or cells: HEK293T

CTNNA2 = biological target: T21, CTNNA2 (Homo sapiens, UniProt P26232); test: Viral trapping in VLPs, MS analysis; assay type: binding; details: all proteins (incl. low confidence identifications)
T21 construct: endogenous in cells; host or cells: HEK293T

PPM1L = biological target: T22, PPM1L (Homo sapiens, UniProt Q5SGD2); test: Viral trapping in VLPs, MS analysis; assay type: binding; details: all proteins (incl. low confidence identifications)
T22 construct: endogenous in cells; host or cells: HEK293T

NEK2 = biological target: T23, NEK2 (Homo sapiens, UniProt P51955); test: Viral trapping in VLPs, MS analysis; assay type: binding; details: all proteins (incl. low confidence identifications)
T23 construct: endogenous in cells; host or cells: HEK293T

GEMIN5 = biological target: T24, GEMIN5 (Homo sapiens, UniProt Q8TEQ6); test: Viral trapping in VLPs, MS analysis; assay type: binding
T24 construct: endogenous in cells; host or cells: HEK293T

LMAN1 = biological target: T25, LMAN1 (Homo sapiens, UniProt P49257); test: Viral trapping in VLPs, MS analysis; assay type: binding; details: all proteins (incl. low confidence identifications)
T25 construct: endogenous in cells; host or cells: HEK293T

FKBP3 = biological target: T26, FKBP3 (Homo sapiens, UniProt Q00688); test: Viral trapping in VLPs, MS analysis; assay type: binding; details: all proteins (incl. low confidence identifications)
T26 construct: endogenous in cells; host or cells: HEK293T

BZW1 = biological target: T27, BZW1 (Homo sapiens, UniProt Q7L1Q6); test: Viral trapping in VLPs, MS analysis; assay type: binding; details: all proteins (incl. low confidence identifications)
T27 construct: endogenous in cells; host or cells: HEK293T

[1] = all proteins (incl. low confidence identifications)
[2] = proteins identified with >1 peptide (high confidence)

T12 sequence (P16083 whole entry): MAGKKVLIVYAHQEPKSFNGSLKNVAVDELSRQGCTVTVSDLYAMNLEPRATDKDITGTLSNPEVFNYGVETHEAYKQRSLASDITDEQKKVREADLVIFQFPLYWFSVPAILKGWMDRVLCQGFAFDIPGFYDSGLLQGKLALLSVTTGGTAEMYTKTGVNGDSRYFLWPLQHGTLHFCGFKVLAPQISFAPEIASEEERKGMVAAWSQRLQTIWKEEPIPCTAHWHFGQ
T24 sequence (Q8TEQ6 whole entry): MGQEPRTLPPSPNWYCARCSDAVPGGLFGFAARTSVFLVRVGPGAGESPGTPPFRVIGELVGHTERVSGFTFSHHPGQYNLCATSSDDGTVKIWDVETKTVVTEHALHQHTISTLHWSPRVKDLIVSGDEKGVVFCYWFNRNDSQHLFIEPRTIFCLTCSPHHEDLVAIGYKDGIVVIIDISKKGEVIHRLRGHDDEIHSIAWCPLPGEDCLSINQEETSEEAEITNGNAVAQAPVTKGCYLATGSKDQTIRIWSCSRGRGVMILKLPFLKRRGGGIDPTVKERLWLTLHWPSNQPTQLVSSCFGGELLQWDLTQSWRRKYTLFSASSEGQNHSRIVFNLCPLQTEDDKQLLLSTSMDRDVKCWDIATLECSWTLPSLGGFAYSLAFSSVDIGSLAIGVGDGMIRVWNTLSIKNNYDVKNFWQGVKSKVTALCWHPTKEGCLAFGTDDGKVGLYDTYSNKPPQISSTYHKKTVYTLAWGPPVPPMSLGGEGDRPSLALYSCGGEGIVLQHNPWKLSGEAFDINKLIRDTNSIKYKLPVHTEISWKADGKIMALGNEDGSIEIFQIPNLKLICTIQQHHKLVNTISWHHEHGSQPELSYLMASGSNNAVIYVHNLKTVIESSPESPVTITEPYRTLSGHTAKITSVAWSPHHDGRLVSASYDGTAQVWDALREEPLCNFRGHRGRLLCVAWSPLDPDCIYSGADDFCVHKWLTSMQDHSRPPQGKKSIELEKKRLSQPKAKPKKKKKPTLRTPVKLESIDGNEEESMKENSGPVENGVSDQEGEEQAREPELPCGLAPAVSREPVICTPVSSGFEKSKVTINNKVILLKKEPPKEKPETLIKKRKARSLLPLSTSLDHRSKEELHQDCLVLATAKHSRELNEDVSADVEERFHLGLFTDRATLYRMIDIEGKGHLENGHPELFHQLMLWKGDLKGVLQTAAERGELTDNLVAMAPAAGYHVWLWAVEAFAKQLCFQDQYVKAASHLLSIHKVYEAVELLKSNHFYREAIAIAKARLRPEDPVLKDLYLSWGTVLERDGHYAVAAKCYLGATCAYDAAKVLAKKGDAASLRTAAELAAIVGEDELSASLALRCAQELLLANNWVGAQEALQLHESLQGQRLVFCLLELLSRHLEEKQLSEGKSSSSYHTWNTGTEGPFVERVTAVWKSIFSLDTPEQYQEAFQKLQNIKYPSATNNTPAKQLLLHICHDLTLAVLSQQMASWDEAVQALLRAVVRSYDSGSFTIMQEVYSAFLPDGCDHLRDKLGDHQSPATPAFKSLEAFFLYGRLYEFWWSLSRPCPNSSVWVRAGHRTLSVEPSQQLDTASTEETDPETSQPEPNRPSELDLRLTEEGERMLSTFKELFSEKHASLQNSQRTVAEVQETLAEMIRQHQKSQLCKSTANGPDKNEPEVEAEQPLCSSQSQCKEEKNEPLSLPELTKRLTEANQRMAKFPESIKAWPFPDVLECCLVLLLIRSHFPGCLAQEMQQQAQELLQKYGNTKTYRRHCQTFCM
T20 sequence (P08069 31-1367): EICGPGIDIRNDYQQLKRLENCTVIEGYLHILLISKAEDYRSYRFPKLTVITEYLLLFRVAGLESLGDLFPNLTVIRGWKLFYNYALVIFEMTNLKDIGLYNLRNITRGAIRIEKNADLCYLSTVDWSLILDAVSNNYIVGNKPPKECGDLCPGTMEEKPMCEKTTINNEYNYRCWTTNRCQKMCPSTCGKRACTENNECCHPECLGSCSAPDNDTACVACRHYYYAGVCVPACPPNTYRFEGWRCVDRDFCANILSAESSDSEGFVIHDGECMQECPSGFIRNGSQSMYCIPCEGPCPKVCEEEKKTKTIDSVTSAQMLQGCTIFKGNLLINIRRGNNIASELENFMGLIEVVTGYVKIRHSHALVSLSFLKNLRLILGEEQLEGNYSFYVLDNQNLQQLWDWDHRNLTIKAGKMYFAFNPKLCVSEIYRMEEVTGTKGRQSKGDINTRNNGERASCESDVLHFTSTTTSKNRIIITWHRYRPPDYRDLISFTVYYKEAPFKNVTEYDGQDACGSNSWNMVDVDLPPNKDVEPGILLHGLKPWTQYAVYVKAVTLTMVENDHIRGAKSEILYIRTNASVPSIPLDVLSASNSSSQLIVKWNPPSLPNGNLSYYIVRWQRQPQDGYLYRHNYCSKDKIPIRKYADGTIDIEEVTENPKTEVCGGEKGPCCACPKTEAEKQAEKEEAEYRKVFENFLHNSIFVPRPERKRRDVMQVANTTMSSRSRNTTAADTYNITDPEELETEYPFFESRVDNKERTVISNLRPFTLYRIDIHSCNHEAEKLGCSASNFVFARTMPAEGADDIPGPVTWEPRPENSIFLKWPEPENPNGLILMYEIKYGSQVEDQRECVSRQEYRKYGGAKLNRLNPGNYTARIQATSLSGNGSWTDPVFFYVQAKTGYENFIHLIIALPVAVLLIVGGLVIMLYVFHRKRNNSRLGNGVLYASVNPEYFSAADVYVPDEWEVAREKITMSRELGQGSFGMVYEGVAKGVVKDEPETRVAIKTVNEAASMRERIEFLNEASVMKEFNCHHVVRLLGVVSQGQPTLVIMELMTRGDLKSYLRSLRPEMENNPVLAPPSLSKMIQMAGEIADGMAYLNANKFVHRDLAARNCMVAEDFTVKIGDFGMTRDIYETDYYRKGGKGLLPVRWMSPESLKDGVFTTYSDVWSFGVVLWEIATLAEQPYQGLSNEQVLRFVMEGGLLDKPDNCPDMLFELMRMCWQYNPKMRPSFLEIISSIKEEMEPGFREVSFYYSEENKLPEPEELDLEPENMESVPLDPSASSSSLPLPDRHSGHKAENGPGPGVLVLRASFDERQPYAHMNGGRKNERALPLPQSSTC
T16 sequence (P06213 28-1382): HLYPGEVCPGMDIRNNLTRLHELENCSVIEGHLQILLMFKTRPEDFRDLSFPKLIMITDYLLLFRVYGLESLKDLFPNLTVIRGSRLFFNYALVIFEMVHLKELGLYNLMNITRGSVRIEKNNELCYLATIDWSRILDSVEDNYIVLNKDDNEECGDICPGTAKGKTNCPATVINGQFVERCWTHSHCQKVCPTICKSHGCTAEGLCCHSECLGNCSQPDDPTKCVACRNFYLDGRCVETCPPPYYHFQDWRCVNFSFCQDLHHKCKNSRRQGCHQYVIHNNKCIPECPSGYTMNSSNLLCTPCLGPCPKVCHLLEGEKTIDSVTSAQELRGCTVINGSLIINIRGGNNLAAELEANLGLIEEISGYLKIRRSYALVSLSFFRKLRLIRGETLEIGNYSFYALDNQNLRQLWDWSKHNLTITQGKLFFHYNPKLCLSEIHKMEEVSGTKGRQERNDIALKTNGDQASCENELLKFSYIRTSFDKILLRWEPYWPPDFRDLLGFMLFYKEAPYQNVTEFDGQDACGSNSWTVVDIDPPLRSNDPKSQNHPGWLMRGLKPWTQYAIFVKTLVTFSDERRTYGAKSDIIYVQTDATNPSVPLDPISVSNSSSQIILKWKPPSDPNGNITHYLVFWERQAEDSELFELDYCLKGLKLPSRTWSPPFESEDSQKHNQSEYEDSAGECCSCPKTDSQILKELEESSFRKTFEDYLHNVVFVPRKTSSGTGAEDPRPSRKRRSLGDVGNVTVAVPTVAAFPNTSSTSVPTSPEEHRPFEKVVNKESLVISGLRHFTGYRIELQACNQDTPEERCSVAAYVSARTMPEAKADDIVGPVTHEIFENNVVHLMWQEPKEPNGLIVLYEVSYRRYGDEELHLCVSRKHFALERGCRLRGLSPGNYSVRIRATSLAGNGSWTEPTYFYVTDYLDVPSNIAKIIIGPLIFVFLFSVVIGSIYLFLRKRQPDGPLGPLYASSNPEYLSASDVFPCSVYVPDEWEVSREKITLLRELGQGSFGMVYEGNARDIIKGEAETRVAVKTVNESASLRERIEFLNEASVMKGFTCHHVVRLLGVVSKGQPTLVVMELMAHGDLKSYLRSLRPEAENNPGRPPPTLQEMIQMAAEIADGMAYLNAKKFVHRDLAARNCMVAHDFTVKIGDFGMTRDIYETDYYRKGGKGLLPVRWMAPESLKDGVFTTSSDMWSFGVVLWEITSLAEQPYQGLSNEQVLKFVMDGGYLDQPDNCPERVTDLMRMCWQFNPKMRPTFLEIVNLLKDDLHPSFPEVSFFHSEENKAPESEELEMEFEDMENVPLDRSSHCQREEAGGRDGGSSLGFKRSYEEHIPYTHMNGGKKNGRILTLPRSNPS
T4 sequence (O43598 whole entry): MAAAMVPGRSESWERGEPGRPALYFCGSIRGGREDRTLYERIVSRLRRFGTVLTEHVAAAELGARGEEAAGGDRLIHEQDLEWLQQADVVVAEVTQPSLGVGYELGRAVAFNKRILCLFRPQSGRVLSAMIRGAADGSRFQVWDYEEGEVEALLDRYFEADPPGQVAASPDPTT
T18 sequence (Q9HDC9 whole entry): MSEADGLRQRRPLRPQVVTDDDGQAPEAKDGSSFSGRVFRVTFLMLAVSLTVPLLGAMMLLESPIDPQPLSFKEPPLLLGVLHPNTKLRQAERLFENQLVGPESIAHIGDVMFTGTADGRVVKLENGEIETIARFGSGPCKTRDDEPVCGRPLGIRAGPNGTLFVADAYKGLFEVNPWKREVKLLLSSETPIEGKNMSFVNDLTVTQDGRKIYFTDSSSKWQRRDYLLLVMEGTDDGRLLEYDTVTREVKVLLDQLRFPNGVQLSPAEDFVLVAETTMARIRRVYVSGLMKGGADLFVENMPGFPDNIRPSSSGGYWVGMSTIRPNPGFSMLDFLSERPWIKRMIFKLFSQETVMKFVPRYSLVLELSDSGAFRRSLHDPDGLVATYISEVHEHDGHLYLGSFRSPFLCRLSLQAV

- Recurrence (x/2) (USP7): 1 x/2
- Recurrence (x/2) (NT5C): 1 x/2
- Recurrence (x/2) (MFI2): 1 x/2
- Recurrence (x/2) (RCL; [1]): 1 x/2
- Recurrence (x/2) (RCL; [2]): 1 x/2
- Recurrence (x/2) (MBTPS1): 1 x/2
- Recurrence (x/2) (RPS6KA1): 1 x/2
- Recurrence (x/2) (TMEM30A): 1 x/2
- Recurrence (x/2) (MYO1D): 1 x/2
- Recurrence (x/2) (DYNC2H1): 1 x/2
- Recurrence (x/2) (TMEM9): 1 x/2
- Recurrence (x/2) (GAK): 1 x/2
- Recurrence (x/2) (NQO2; [1]): 2 x/2
- Recurrence (x/2) (NQO2; [2]): 1 x/2
- Recurrence (x/2) (ZNF827): 1 x/2
- Recurrence (x/2) (TMX1): 1 x/2
- Recurrence (x/2) (MST1R): 1 x/2
- Recurrence (x/2) (INSR; [1]): 2 x/2
- Recurrence (x/2) (INSR; [2]): 2 x/2
- Recurrence (x/2) (CAMKV): 1 x/2
- Recurrence (x/2) (APMAP): 1 x/2
- Recurrence (x/2) (YIPF5): 1 x/2
- Recurrence (x/2) (IGF1R; [1]): 2 x/2
- Recurrence (x/2) (IGF1R; [2]): 2 x/2
- Recurrence (x/2) (CTNNA2): 1 x/2
- Recurrence (x/2) (PPM1L): 1 x/2
- Recurrence (x/2) (NEK2): 1 x/2
- Recurrence (x/2) (GEMIN5; [1]): 1 x/2
- Recurrence (x/2) (GEMIN5; [2]): 1 x/2
- Recurrence (x/2) (LMAN1): 1 x/2
- Recurrence (x/2) (FKBP3): 1 x/2
- Recurrence (x/2) (BZW1): 1 x/2
Compound: CN(Cc1cnc2nc(N)nc(N)c2n1)c1ccc(C(=O)NC(CCC(=O)NCCOCCOCCOCCOCCOCCn2cc(CN3CCN(c4ccc(Nc5nc(NC6CCCCC6)c6nc[nH]c6n5)cc4)CC3)nn2)C(=O)O)cc1 (stereo not drawn) [MTX-PEG6-reversine]
- Recurrence (x/2) (HTRA3): 1 x/2

— patent US11231416B2, “Virus-like particle (VLP) based small molecule-protein interaction trap” (VIB VZW, priority 2015, dated 2022)
